Assay results as given in the supplement of paper PMC13207355.
Structures can show the parent of a compound that is named as a salt.

Tests used:
Conditions in all cases: exposure time: 72 h
[1] = system: E21 (patient-derived glioblastoma stem cells of mesenchymal subtype); test: phenotypic distance (Euclidean, principal components) from DMSO controls (arbitrary units); higher = stronger morphological change
[2] = system: E28 (patient-derived glioblastoma stem cells of classical subtype); test: as above
[3] = system: E31 (patient-derived glioblastoma stem cells of proneural subtype); test: as above
[4] = system: E57 (patient-derived glioblastoma stem cells of mesenchymal subtype); test: as above
[5] = system: FT3469 (normal neural stem cell line); test: as above
[6] = system: E13 (patient-derived glioblastoma stem cells of classical subtype); test: as above
[7] = system: E34 (patient-derived glioblastoma stem cells of proneural subtype); test: as above
[8] = system: E21; test: surviving fraction (nuclei count normalised to DMSO); higher = more cells surviving (less toxic)
[9] = system: E28; test: as above
[10] = system: E31; test: as above
[11] = system: E57; test: as above
[12] = system: FT3469; test: as above
[13] = system: E13; test: as above
[14] = system: E34; test: as above
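For phenotypic distance (Euclidean, principal components) from DMSO controls in this document: cell Painting imaging in 384-well plates, CellProfiler features reduced to at least 20 principal components, Euclidean distance versus same-plate DMSO vehicle wells (0.1% v/v), median over six images per well.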
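For surviving fraction (nuclei count normalised to DMSO) in this document: nuclei counted by high-content imaging of Hoechst-stained cells in laminin-coated 384-well plates, relative to 0.1% DMSO vehicle wells, with staurosporine as cell-death control.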

COc1cc(OC)c(C(=O)CCCN2CCCC2)c(OC)c1 [Buflomedil hydrochloride]
Conditions	phenotypic distance	surviving fraction
[1], 4.1 nM	0.617	–
[1], 12.3 nM	0.741	–
[1], 37 nM	0.582	–
[1], 111.1 nM	0.712	–
[1], 333.3 nM	0.706	–
[1], 1000 nM	0.913	–
[1], 3000 nM	0.567	–
[2], 4.1 nM	0.701	–
[2], 12.3 nM	0.827	–
[2], 37 nM	0.611	–
[2], 111.1 nM	0.817	–
[2], 333.3 nM	0.347	–
[2], 1000 nM	0.489	–
[2], 3000 nM	0.878	–
[3], 4.1 nM	0.629	–
[3], 12.3 nM	0.47	–
[3], 37 nM	0.918	–
[3], 111.1 nM	0.593	–
[3], 333.3 nM	0.443	–
[3], 1000 nM	0.577	–
[3], 3000 nM	0.55	–
[4], 4.1 nM	0.802	–
[4], 12.3 nM	1.18	–
[4], 37 nM	4.02	–
[4], 111.1 nM	0.575	–
[4], 333.3 nM	0.903	–
[4], 1000 nM	0.71	–
[4], 3000 nM	0.526	–
[5], 4.1 nM	0.468	–
[5], 12.3 nM	4.94	–
[5], 37 nM	1.05	–
[5], 111.1 nM	0.796	–
[5], 333.3 nM	0.368	–
[5], 1000 nM	0.514	–
[5], 3000 nM	1.05	–
[6], 4.1 nM	0.727	–
[6], 12.3 nM	0.83	–
[6], 37 nM	0.928	–
[6], 111.1 nM	0.845	–
[6], 333.3 nM	0.564	–
[6], 1000 nM	0.536	–
[6], 3000 nM	0.71	–
[7], 4.1 nM	0.771	–
[7], 12.3 nM	0.727	–
[7], 37 nM	0.358	–
[7], 111.1 nM	1.11	–
[7], 333.3 nM	0.684	–
[7], 1000 nM	0.961	–
[7], 3000 nM	0.717	–
[8], 4.1 nM	–	1.05
[8], 12.3 nM	–	1.06
[8], 37 nM	–	1.02
[8], 111.1 nM	–	1.12
[8], 333.3 nM	–	1.13
[8], 1000 nM	–	1.12
[8], 3000 nM	–	0.927
[9], 4.1 nM	–	1.16
[9], 12.3 nM	–	1.19
[9], 37 nM	–	0.856
[9], 111.1 nM	–	1.21
[9], 333.3 nM	–	1.1
[9], 1000 nM	–	1.16
[9], 3000 nM	–	0.677
[10], 4.1 nM	–	0.968
[10], 12.3 nM	–	0.998
[10], 37 nM	–	1.23
[10], 111.1 nM	–	1.03
[10], 333.3 nM	–	1.2
[10], 1000 nM	–	1.04
[10], 3000 nM	–	1.02
[11], 4.1 nM	–	1.06
[11], 12.3 nM	–	1.03
[11], 37 nM	–	0.98
[11], 111.1 nM	–	1.02
[11], 333.3 nM	–	1.04
[11], 1000 nM	–	0.994
[11], 3000 nM	–	0.9
[12], 4.1 nM	–	0.947
[12], 12.3 nM	–	1.27
[12], 37 nM	–	1.15
[12], 111.1 nM	–	1
[12], 333.3 nM	–	1.03
[12], 1000 nM	–	1.1
[12], 3000 nM	–	0.993
[13], 4.1 nM	–	0.886
[13], 12.3 nM	–	1.12
[13], 37 nM	–	1.19
[13], 111.1 nM	–	1.13
[13], 333.3 nM	–	1.01
[13], 1000 nM	–	1.17
[13], 3000 nM	–	0.944
[14], 4.1 nM	–	0.963
[14], 12.3 nM	–	1.03
[14], 37 nM	–	1.02
[14], 111.1 nM	–	1.11
[14], 333.3 nM	–	1.02
[14], 1000 nM	–	1.22
[14], 3000 nM	–	0.991

CO[C@H]1C(=O)[C@]2(C)[C@@H](OC)C[C@H]3OC[C@@]3(OC(C)=O)[C@H]2[C@H](OC(=O)c2ccccc2)[C@]2(O)C[C@H](OC(=O)[C@H](O)[C@@H](NC(=O)OC(C)(C)C)c3ccccc3)C(C)=C1C2(C)C [Cabazitaxel]
Conditions	phenotypic distance	surviving fraction
[1], 4.1 nM	7.35	–
[1], 12.3 nM	7.15	–
[1], 37 nM	6.53	–
[1], 111.1 nM	7.01	–
[1], 333.3 nM	7.6	–
[1], 1000 nM	8.51	–
[1], 3000 nM	7.5	–
[2], 4.1 nM	4.55	–
[2], 12.3 nM	4.4	–
[2], 37 nM	3.8	–
[2], 111.1 nM	4.96	–
[2], 333.3 nM	3.6	–
[2], 1000 nM	4.06	–
[2], 3000 nM	3.99	–
[3], 4.1 nM	4.63	–
[3], 12.3 nM	5.67	–
[3], 37 nM	4.24	–
[3], 111.1 nM	4.7	–
[3], 333.3 nM	4.56	–
[3], 1000 nM	4.89	–
[3], 3000 nM	3.99	–
[4], 4.1 nM	6.8	–
[4], 12.3 nM	7.09	–
[4], 37 nM	5.83	–
[4], 111.1 nM	6.72	–
[4], 333.3 nM	6.55	–
[4], 1000 nM	6.56	–
[4], 3000 nM	6.86	–
[5], 4.1 nM	4.34	–
[5], 12.3 nM	4.07	–
[5], 37 nM	3.92	–
[5], 111.1 nM	4.49	–
[5], 333.3 nM	4.39	–
[5], 1000 nM	5.31	–
[5], 3000 nM	3.95	–
[6], 4.1 nM	7.08	–
[6], 12.3 nM	7.55	–
[6], 37 nM	7.44	–
[6], 111.1 nM	6.21	–
[6], 333.3 nM	6.97	–
[6], 1000 nM	7.09	–
[6], 3000 nM	6.39	–
[7], 4.1 nM	4.76	–
[7], 12.3 nM	5.24	–
[7], 37 nM	5.3	–
[7], 111.1 nM	4.8	–
[7], 333.3 nM	5.59	–
[7], 1000 nM	4.91	–
[7], 3000 nM	4.55	–
[8], 4.1 nM	–	0.323
[8], 12.3 nM	–	0.353
[8], 37 nM	–	0.326
[8], 111.1 nM	–	0.325
[8], 333.3 nM	–	0.365
[8], 1000 nM	–	0.413
[8], 3000 nM	–	0.423
[9], 4.1 nM	–	0.367
[9], 12.3 nM	–	0.401
[9], 37 nM	–	0.344
[9], 111.1 nM	–	0.301
[9], 333.3 nM	–	0.412
[9], 1000 nM	–	0.412
[9], 3000 nM	–	0.534
[10], 4.1 nM	–	0.252
[10], 12.3 nM	–	0.164
[10], 37 nM	–	0.195
[10], 111.1 nM	–	0.192
[10], 333.3 nM	–	0.262
[10], 1000 nM	–	0.218
[10], 3000 nM	–	0.288
[11], 4.1 nM	–	0.0988
[11], 12.3 nM	–	0.102
[11], 37 nM	–	0.0906
[11], 111.1 nM	–	0.117
[11], 333.3 nM	–	0.125
[11], 1000 nM	–	0.133
[11], 3000 nM	–	0.141
[12], 4.1 nM	–	0.374
[12], 12.3 nM	–	0.573
[12], 37 nM	–	0.435
[12], 111.1 nM	–	0.553
[12], 333.3 nM	–	0.535
[12], 1000 nM	–	0.406
[12], 3000 nM	–	0.63
[13], 4.1 nM	–	0.197
[13], 12.3 nM	–	0.226
[13], 37 nM	–	0.203
[13], 111.1 nM	–	0.265
[13], 333.3 nM	–	0.25
[13], 1000 nM	–	0.245
[13], 3000 nM	–	0.32
[14], 4.1 nM	–	0.399
[14], 12.3 nM	–	0.365
[14], 37 nM	–	0.434
[14], 111.1 nM	–	0.49
[14], 333.3 nM	–	0.476
[14], 1000 nM	–	0.608
[14], 3000 nM	–	0.531

CNc1ccc2oc(C[C@H]3O[C@@]4(CC[C@H]3C)O[C@H]([C@H](C)C(=O)c3ccc[nH]3)[C@H](C)C[C@H]4C)nc2c1C(=O)O [Calcimycin]
Conditions	phenotypic distance	surviving fraction
[1], 4.1 nM	0.571	–
[1], 12.3 nM	0.699	–
[1], 37 nM	0.538	–
[1], 111.1 nM	1.96	–
[1], 333.3 nM	7.08	–
[1], 1000 nM	8.73	–
[1], 3000 nM	12.7	–
[2], 4.1 nM	0.698	–
[2], 12.3 nM	0.777	–
[2], 37 nM	0.856	–
[2], 111.1 nM	1.27	–
[2], 333.3 nM	2.95	–
[2], 1000 nM	5.6	–
[2], 3000 nM	6.55	–
[3], 4.1 nM	0.62	–
[3], 12.3 nM	0.642	–
[3], 37 nM	0.72	–
[3], 111.1 nM	2.33	–
[3], 333.3 nM	7.91	–
[3], 1000 nM	11	–
[3], 3000 nM	10.4	–
[4], 4.1 nM	1.32	–
[4], 12.3 nM	0.365	–
[4], 37 nM	1.3	–
[4], 111.1 nM	3.84	–
[4], 333.3 nM	7.84	–
[4], 1000 nM	9.39	–
[4], 3000 nM	9.11	–
[5], 4.1 nM	1.09	–
[5], 12.3 nM	0.726	–
[5], 37 nM	1.32	–
[5], 111.1 nM	1.82	–
[5], 333.3 nM	3.73	–
[5], 1000 nM	6.31	–
[5], 3000 nM	5.79	–
[6], 4.1 nM	1	–
[6], 12.3 nM	0.71	–
[6], 37 nM	1.46	–
[6], 111.1 nM	3.31	–
[6], 333.3 nM	6.79	–
[6], 1000 nM	7.97	–
[6], 3000 nM	8.33	–
[7], 4.1 nM	1.43	–
[7], 12.3 nM	1.06	–
[7], 37 nM	1.29	–
[7], 111.1 nM	1.9	–
[7], 333.3 nM	5.09	–
[7], 1000 nM	6.74	–
[7], 3000 nM	8.56	–
[8], 4.1 nM	–	0.98
[8], 12.3 nM	–	0.993
[8], 37 nM	–	0.951
[8], 111.1 nM	–	0.887
[8], 333.3 nM	–	0.438
[8], 1000 nM	–	0.0684
[8], 3000 nM	–	0.00892
[9], 4.1 nM	–	1.07
[9], 12.3 nM	–	1.19
[9], 37 nM	–	0.999
[9], 111.1 nM	–	0.82
[9], 333.3 nM	–	0.391
[9], 1000 nM	–	0.0896
[9], 3000 nM	–	0.0448
[10], 4.1 nM	–	0.918
[10], 12.3 nM	–	0.898
[10], 37 nM	–	1
[10], 111.1 nM	–	0.786
[10], 333.3 nM	–	0.259
[10], 1000 nM	–	0.00976
[10], 3000 nM	–	0.00976
[11], 4.1 nM	–	1.07
[11], 12.3 nM	–	0.989
[11], 37 nM	–	0.871
[11], 111.1 nM	–	0.561
[11], 333.3 nM	–	0.201
[11], 1000 nM	–	0.0743
[11], 3000 nM	–	0.0336
[12], 4.1 nM	–	1.05
[12], 12.3 nM	–	0.987
[12], 37 nM	–	0.999
[12], 111.1 nM	–	0.849
[12], 333.3 nM	–	0.578
[12], 1000 nM	–	0.25
[12], 3000 nM	–	0.118
[13], 4.1 nM	–	0.894
[13], 12.3 nM	–	0.814
[13], 37 nM	–	0.678
[13], 111.1 nM	–	0.576
[13], 333.3 nM	–	0.266
[13], 1000 nM	–	0.11
[13], 3000 nM	–	0.061
[14], 4.1 nM	–	0.804
[14], 12.3 nM	–	0.991
[14], 37 nM	–	0.946
[14], 111.1 nM	–	0.787
[14], 333.3 nM	–	0.467
[14], 1000 nM	–	0.381
[14], 3000 nM	–	0.143
